In US6818203B2, “Use of perfluoroalkyl-containing metal complexes as contrast media in MR-imaging for visualization of plaque, tumors and necroses” (Schering Aktiengesellschaft, priority 2000, dated 2004):

How the values were obtained:
[1] = in vivo; cited from earlier work
[2] = tested on: myocardial infarction; experiment: infarction visualization (MRT) after intravenous administration in rats with acutely induced myocardial infarction; format: in vivo; details: 24 hours after i.v. 100 μmol of Gd/kg
Source text: The successful induction of an acute myocardial infarction was confirmed by means of NBT-staining.

[3] = critical micelle formation concentration (CMC) by tensiometry; format: physicochemical
Procedure: In aqueous systems, these amphiphilic molecules show the properties that are characteristic of standard surfactants (such as, e.g., sodium dodecylsulfate, SDS). They thus reduce the surface tension of water. By tensiometry, the so-called CMC (critical micelle formation concentration in mol/l) can be determined. In this respect, the surface tension is determined based on the concentration of the substance to be measured. The CMC can be calculated from the plot of the surface tension function (c) that is obtained. The critical micelle formation concentration of the compounds according to the invention must be <10^−3 mol/l, preferably <10^−4 mol/l.
(§1) Both the determination of the CMC and the photon correlation spectroscopy are described in H.-D. Dörfler, “Grenzflächen- und Kolloidchemie [Interface and Colloid Chemistry],” Weinheim, New York, Basel, Cambridge, Tokyo, VSH 1994.

[4] = tested on: arteriosclerotic plaque; experiment: MRT-visualization of arteriosclerotic plaque after intravenous administration; format: in vivo, Watanabe rabbits
Source text: Based on the contrast between the plaque with strong signals and the healthy vessel wall with little or no signals, a diagnosis of the arteriosclerotic vessel wall changes was possible.
The localization of the plaque, especially in aortic arches and in vascular passages, was confirmed by means of Sudan-III-staining.
The localization of the plaque, especially in aortic arches as well as in vascular passages, was confirmed by means of Sudan-III-staining. Then, the MR-imaging of the agar-embedded preparation was again examined with a T1-weighted gradientecho sequence (MPRage; 1.5 T; TR 11.1 ms, TE 4.3 ms, 15° flip angle α; NA: 2; matrix: 213*256) and a spin-echo sequence (1.5 T; TR: 400 ms, TE: 15 ms; NA: 16; matrix: 256*256) (post mortem image).

[5] = tested on: primary tumor (VX2-tumor implanted i.m.); experiment: tumor visualization (MRT) after intravenous administration in VX2-tumor-bearing rabbits; format: in vivo; details: 200 μmol of Gd/kg i.v.
Procedure: The pictures of FIG. 6 show MR images of an iliac lymph node and of a primary tumor (VX2-tumor implanted i.m.) precontrast, 60 minutes and 20 hours after intravenous administration of 100 μmol of Gd/kg of body weight of metal complex I in rabbits. […]

[6] = tested on: iliac lymph nodes; experiment: lymph node visualization (MRT) after intravenous administration in VX2-tumor-bearing rabbits; format: in vivo; details: 200 μmol of Gd/kg i.v.
Procedure: The pictures of FIG. 6 show MR images of an iliac lymph node and of a primary tumor (VX2-tumor implanted i.m.) precontrast, 60 minutes and 20 hours after intravenous administration of 100 μmol of Gd/kg of body weight of metal complex I in rabbits. […] The enhancement in the healthy lymph node tissue was 382% at the time of 15 minutes p.i. and 419% at the time of 60 minutes p.i. […] The ratio of signal intensities of healthy lymph node tissue to metastasis was 3.0 at the time of 15 minutes p.i. and 3.4 at the time of 60 minutes p.i. […] The enhancement in the healthy lymph node tissue was 246% at the time of 15 minutes p.i. and 282% at the time of 60 minutes p.i. […] The ratio of signal intensities of healthy lymph node tissue to metastasis was 2.5 at the time of 15 minutes p.i. and 1.7 at the time of 60 minutes p.i. […] The enhancement in the healthy lymph node tissue was 297% at the time of 10 minutes p.i. and 269% at the time of 60 minutes p.i. […] The ratio of signal intensities of healthy lymph node tissue to metastasis was 5.1 at the time of 10 minutes p.i. and 1.9 at the time of 60 minutes p.i. […] The enhancement in the healthy lymph node tissue was 195% at the time of 15 minutes p.i. and 233% at the time of 60 minutes p.i. […] The ratio of signal intensities of healthy lymph node tissue to metastasis was 1.9 at the time of 15 minutes p.i. and 1.8 at the time of 60 minutes p.i.

[7] = hydrodynamic micelle diameter (2 Rh) by photon correlation spectroscopy (PCS); format: physicochemical
Source text: The amphiphilic compounds according to the invention are combined in solution and are present as aggregates. The size (2 Rh) of such aggregates (e.g., micelles, rods, wafers, etc.) can be determined with the aid of […] (PCS).
As a second criterion, the hydrodynamic micelle diameter 2 Rh, which must be >1 nm, is therefore used. Those perfluoroalkyl-containing metal complexes according to the invention whose 2 RH is ≧3, quite especially preferably >4 nm, are especially suitable.
as §1

[8] = proton relaxivity in plasma (R^1), Minispec P 20; format: physicochemical; details: 40° C., 0.47 tesla, bovine plasma
Procedure: As a third criterion, the proton-relaxivity in plasma (R^1) at 40° C. and a field strength of 0.47 tesla is used. The relaxivity, which is indicated in [l/mmol·s], is the quantitative measurement for the shortening of relaxation time T^1 of the protons. For the purpose according to the invention, the relaxivity must be as high as possible and >10 l/mmol·s, preferably >13 l/mmol·s, especially preferably >15 l/mmol·s.
Relaxivity R^1 [l/mmol·s] of the MR-contrast media according to the invention was determined with the Minispec P 20 device of the Bruker Company. The measurements were taken at 40° C. and a field strength of 0.47 tesla. Eight measuring points were recorded by each T1-sequence: 180°-TI-90°, inversion recovery. As a medium, bovine plasma of the Kraeber Company was used. The contrast medium concentrations [mmol/l] in the batches were between 0.30 and 1.16.

[9] = 24 hours after contrast medium administration

| Structure (SMILES) | LD50 [1] | dose at which an action starts [1] | signal in the infarction area (T1-weighted spin-echo images) [2] | CMC (critical micelle formation concentration) [3] | signal in arteriosclerotic plaque (MR images of the aorta) ([4]; 35 minutes, 60 minutes and 24 hours after i.v. 10 μmol of Gd/kg) | signal in the arteriosclerotic plaque (MR images of the aorta) ([4]; 24 hours and 48 hours after i.v. 25 μmol of Gd/kg) | correlation of the aortic sections with strong signal rise and Sudan-III stained plaque ([4]; post mortem image of the agar-embedded preparation, 10 μmol of Gd/kg i.v.) | course of the enhancement of the primary tumor ([5]; 24 hours p.i.) | enhancement of the primary tumor (especially the periphery) ([5]; immediately after administration) | signal in healthy lymph node tissue (T1-weighted gradient-echo images) [6] | signal in the metastasis, late [6, 9] | signal rise in healthy lymph node tissue, late [6, 9] | signal in zones within the lymph node diagnosed as metastases (confirmed histologically) ([6]; early images) | 2 Rh (hydrodynamic micelle diameter) [7] | R^1 Plasma (relaxivity) [8] |
| --- | --- | --- | --- | --- | --- | --- | --- | --- | --- | --- | --- | --- | --- | --- | --- |
| O=S(=O)([O-])c1ccc(-c2c3nc(c(-c4ccc(S(=O)(=O)[O-])cc4)c4ccc([nH]4)c(-c4ccc(S(=O)(=O)[O-])cc4)c4nc(c(-c5ccc(S(=O)(=O)[O-])cc5)c5ccc2[nH]5)C=C4)C=C3)cc1.[Mn+4] [Mn-TPPS, manganese-5,10,15,20-tetrakis(4-sulfonatophenyl)-porphyrin] | approximately 0.5 mmol/kg | 0.2 mmol/kg | – | – | – | – | – | – | – | – | – | – | – | – | – |
| CC(C(=O)NCC(=O)NCCCC[C@H](NC(=O)CO[C@H]1O[C@H](CO)[C@@H](O)[C@H](O)[C@@H]1O)C(=O)N1CCN(S(=O)(=O)C(F)(F)C(F)(F)C(F)(F)C(F)(F)C(F)(F)C(F)(F)C(F)(F)C(F)(F)F)CC1)N1CCN(CC(=O)[O-])CCN(CC(=O)[O-])CCN(CC(=O)[O-])CC1.[Gd+3] (stereo partly drawn) [metal complex XV, 6-N-[1,4,7-Tris(carboxylatomethyl)-1,4,7,10-tetraazacyclododecane-10-N-(pentanoyl-3-aza-4-oxo-5-methyl-5-yl)]-2-N-[1-O-α-D-carbonylmethyl-mannopyranose]-L-lysine-[1-(4-perfluorooctylsulfonyl)-piperazine]-amide, Gd complex] | – | – | strong signal rise | 2.5e-06 mol/L | strong signal rise | strong signal rise | excellent correlation | propagates out from the center of the tumor | considerable enhancement | strong signal rise | considerable signal rise | reduced | without signal rise | 4.4 nm | 15.9 mmol⁻¹ s⁻¹ |
